As usually defined, the GI50 is the concentration giving 50% growth inhibition.

In one assay the test system is MCF-7. As to the kind of experiment: Initial screening, SRB assay GI50. In kind it is cell-based. The following applies: Homo sapiens, MCF7, 48 hrs. Here is the method:
(§1) For initial screening, the GIso of compounds 4a-4h in the cell lines MDA-MB-231, MDA-MB-435 and MCF-7 was determined via the SRB-assay for 48 hrs as follows:
(§2) A stock solution of compounds was prepared at 50 mM in 100% DMSO. For cells preparation, a flask of 75 cm^2 or 25 cm^2 were used for 2.6×10^5 cells/mL or 1.44×10^5 cells/mL, respectively, with an 80-90% of confluence. Cells were washed with PBS and trypsinized. The concentration of cells was determined using a 1:2 dilutions with Trypan Blue and a hemocytometer. After cell count, the concentration was adjusted to have a 7.0-10.0×10^4 cells/mL. Approximately 100 μL of cells suspension, compounds, control positive and control negative were added in triplicates to a 96 well plate. Positive control used was doxorubicin, and the negative control was DMSO 0.1%. All compounds (4a-h) at 50, 25, 12.5, 6.3, and 1.6 μM were incubated with cells at 37° C. for 48 hrs. For fixation, cold TCA 50% was used and incubated at 4° C. for 1 h. Wells were washed and dried prior to tincture with 100 μL of SRB 0.4%. To remove excess of SRB, acetic acid was used. For analysis, TRIS-BASE Solution (pH=10.5) was used and shaken prior to reading using an ELISA reader at 540 nm and the software SoftMax Pro 4.8. For each compound, 50% growth inhibition (GI50) was calculated from Sigmoidal dose-response curves (variable-slope) that were generated with data obtained from experiments carried out in triplicates (GI50 values were generated with GraphPad Prism V. 6.02, GraphPad Software, Inc.).

Assay [1] has as its system MDA-MB-231. The assay can be described thus: Initial screening, SRB assay GI50. In kind it is cell-based. The conditions noted are these: Homo sapiens, 48 hrs. The protocol: as §1, §2
On the technique in general: Sulforhodamine B stains cellular protein and so reports cell mass.

Another assay concerns MDA-MB-435. As to the kind of experiment: Initial screening, SRB assay GI50. The class given is cell-based. The conditions noted are these: Homo sapiens, 48 hrs, read-out: MDA-MB435 GI50. The protocol:
as §1, §2

The subject of assay [2] is MDA-MB-231. As to the kind of experiment: Initial screening, inhibition of migration (wound gap). The class given is cell-based. The following applies: Homo sapiens, at 10 μM, read-out: Inh. of migration. The protocol:
In addition, the inhibition of migration of MDA-MB-231 was determined via the following procedure:
Prior to assays, cells were grown until 80-90% confluence was observed. We used a 75 cm^2 flask for 2.6×10^5 cells/mL in 10 mL and for a 25 cm^2 flask 1.44×10^5 cells/mL in 5 mL. The cells were washed with PBS to remove all traces of FBS. We added 2 mL for a 25 cm^2 flasks or 4 mL for a 75 cm^2 flasks trypsin, and incubated 5-10 min at 37° C. At the end of the incubation time, cells were re-suspended and counted with hemocytometer using 1:2 dilutions with Trypan blue. Subsequently, cell viability was calculated. In a 12 well tissue culture plate, we used the plastic pattern to draw a fine space with a fine marker on the bottom of the plate. Cells were seeded at 1.5-2.2×10^5 cells/mL in 1 mL and incubated for 24 h. Cells were then rinsed with PBS and incubated in starving media (0.5% FBS) overnight. All controls and drugs were tested in triplicate. The negative control for each drug was prepared according to the drug's DMSO concentration. […] The wound was made using a sterile pipette tip of 200 μL. Cells were then rinsed very gently with media without FBS and media with negative controls was added. After a 24 h incubation, the gap distance was evaluated using the software Lumera Infinity Analyze 6.4.0. Pictures were taken at 0, 8, 12 and 24 h using a 10× objective in an Inverted Laboratory Microscope Leica DM IL LED, and an Infinity1-3 3.1 Megapixel USB 2.0 camera CMOS. The percentage of migration was calculated using the following formula: […]

Assay [3] concerns A549 lung adenocarcinoma cells. As to the kind of experiment: EGF-induced membrane ruffles, F-actin staining. In kind it is cell-based. The conditions noted are these: 24 h. Here is the method:
Cells were stimulated with EGF (200 ng/ml) for 5 min, and fixed and stained with Rhodamine Phalloidin for F-actin.
Cells were grown on glass coverslips and treated with vehicle or 4c for 24h. Lung cancer cells that were stimulated with epidermal growth factor (EGF) were serum starved prior to stimulation with 200 ng/ml EGF for 5 min. Following fixation in 4% formaldehyde, cells were stained for F-actin with Rhodamine phalloidin and visualized by fluorescence microscopy. 5 random fields were scored for the number of ruffles.

A further assay addresses T1, Rac1 (Homo sapiens, UniProt P63000).
T1 construct: endogenous in cells; host or cells: MDA-MB-231
The assay can be described thus: Rac activation assay (PAK-PBD pulldown). The class given is cell-based. The following applies: 250 nM, 24 hours, MDA-MB-231. The protocol:
MDA-MB-231 breast cancer cells were treated for 24 hours with 0 or 250 nM 4c. Cells were lysed and equal amounts of proteins were subjected to pull-down assays using the p21-binding domain of PAK to isolate GTP bound Rac. Top panel, pulldown showing GTP bound Rac1; middle panel, total Rac1 in lysates; bottom panel, actin as a loading control.
MDA-MB-231 triple negative breast cancer cells were seeded at equal density and treated with vehicle or Compound 4c for 24 hrs at various concentrations. Rac-GTP was detected using Rac Activity Assay, as per manufacturer's instructions (Cell Signaling). Briefly, total cell lysates were quantified and added equally to Pak-PBD beads. After 1 hr of incubation, beads were washed and Rac1-GTP (in pellets) or total Rac1 (in cell lysates) was detected by western blot using Rac1 antibody. (n=3 biological replicates).

The next assay deals with T2, Vav2 binding to Rac1 (Homo sapiens, UniProt P63000, G15A).
T2 construct: purchased Cell Biolabs, San Diego; CA; host or cells: Vav2 from MDA-MB-231 cell lysate
As to the kind of experiment: Rac1 GEF assay, Rac1(G15A) pulldown. The conditions noted are these: 250 nM, MDA-MB-231 lysates. The protocol:
GST-Rac1 (G15A) beads were pre-incubated with vehicle (0.1% DMSO), or 8 μM EHop-016, or 250 nM Compound 4c for 1 hour followed by incubation with MDA-MB-231 cell lysates (equal total protein). Representative Western blot for Rac1(G15A) or pulldowns immunostained for Vav2 is shown (n=3).
MDA-MB-231 cells in culture medium were lysed in 1% Triton X-100, 20 mM HEPES, pH 7.4, 150 mM NaCl, 5 mm MgCl2, and protease inhibitors and processed. Equal amounts of protein from cleared lysates were incubated for 1 h at 4° C. with glutathione-agarose beads conjugated to GST-Rac1(G15A) nucleotide-free mutant (Cell Biolabs, San Diego. CA) that were preincubated (for 1 h) with vehicle or 8 μm EHop-016 or 0.25 μM Compound 4c. The beads were washed, and the lysates and pull-downs were immunoblotted for Tiam-1, Trio, Ect2, p-REX, or Vav2.

Regarding `CCn1c2ccccc2c2cc(-n3nnc(C(O)c4cccc(OC)c4)c3-c3ccccc3)ccc21` (stereo not drawn) [Compound 4c, (1-(9-ethyl-9H-carbazol-3-yl)-5-phenyl-1H-1,2,3-triazol-4-yl) (3-methoxyphenyl) methanol], the GI50 in the assay with MCF-7 was 3.2 µM; in the assay on MDA-MB-231 [1], 17.2 µM; with MDA-MB-435, 1600 nM. For the same compound, the inhibition at 10 µM with MDA-MB-231 [2] stood at 50.8 ± 11.4%. Further, the “reduction of membrane ruffles in response to EGF” value in assay [3] (250 nM) is given as 20%; in assay [3] (500 nM) it was around 38%; in assay [3] (1000 nM), 58%. On Rac1, the “reduction of Rac1 activation by GTP loading” value came out at 85%. This compound also returned an inhibition at […] on Vav2 binding to Rac1 of around 80%.

These data come from patent US20250214973A1, “1,4,5-TRISUBSTITUTED-1,2,3-TRIAZOLES AND USES THEREOF” (UNIVERSITY OF PUERTO RICO, priority 2022, published 2025).
